Experimental data as given in US4166852A, “Piperazino-pyrimidines and their use as spasmolytic agents” (priority 1974, dated 1979).
Converted amounts (≈) assume the structure as drawn. Structures can show the parent of a compound that is named as a salt. Where two headings read alike, the source gives them in different places.

Experiments:
rat = assay: catalepsy test, rat; format: in vivo, CD rat (Charles RIVER); conditions: po, orally, read-out: Catalepsy AD 50
Description: (§1) The neuroloptic effects of the compounds according to the invention have been shown with respect to the CD rat (Charles RIVER) taken orally in the catalepsy test according to S. COURVOISIER, R. DUCROT, and L. JULOU, in Psychotropic Drugs, S. GARATTINI and V. GHETTI, Edit.--ELSEVIER Publ. Co., AMSTERDAM, LONDON, NEW YORK, PRINCETON, 1957 P. 373 and also in the traction test of CD1 (Charles RIVER) mice taken orally S. COURVOISIER, Quart. Rev. Psychiat. Neurol. 17, 25 (1956), on the one hand and also in the spontaneous motility test.

[1] = tested on: isolated duodenum of the rabbit; assay: spasmolytic activity overall; format: cell-based; conditions: isolated duodenum of rabbits
Description: (§2) Ges. Physiol., 102, 123, (1904) with respect to the spasms of the isolated duodenum of rabbits caused either by acetylchlorine for the spasmolytic nemotropes or by barium chloride for the spasmolytic musculotropes.

dogs = assay: anti-emetic activity, apomorphine vomiting test on dogs; format: in vivo; conditions: dogs; for ED50: Canis lupus familiaris, po, orally, apomorphine, read-out: Anti-emetic activity on dogs ED 50
Description: The anti-emetic properties of the compounds according to the invention have been shown by oral administration of apomorphine to dogs in the vomiting test according to G. Chen and C. J. Ensor, Pharmacol. exp. Therap., 98, 24 (1950).

mouse [2] = assay: spontaneous motility test (hypomotility), mouse; format: in vivo, mice; conditions: po, 1 h, orally, 60 minutes before measuring, 50% reduction of mean motility, first 5 minutes, read-out: Hypomotility ED 50
Description: as §1
This latter technique comprises keeping an account of the displacements of the mice by means of a floor of metal strips which enables the spontaneous activity of the animals to be recorded during the first 5 minutes subsequent to their being introduced into the measuring chamber. The products are dispensed 60 minutes before measuring is effected and 10 mice are used per dose. The results are expressed in ED 50 which represents the dose of substance capable of reducing the mean motility of the treated animals by 50% relative to that of the sample group which has only received the dispensing carrier.

[3] = tested on: isolated duodenum of the rabbit (acetylcholine); assay: spasmolytic effect on isolated duodenum, acetylcholine spasm; format: cell-based; conditions: Oryctolagus cuniculus, read-out: Spasmolytic effects EC 50 with respect to acetylcholine
Description: as §2

mouse [4] = assay: traction test, mouse; format: in vivo, CD1 (Charles RIVER) mice; conditions: po, orally, read-out: Traction AD 50
Description: as §1

head twitch = assay: anti-serotonine activity, head twitch; format: in vivo, CD 1 (Charles RIVER) mice; conditions: Mus musculus, po; mice, orally; read-out: "Head-twitch" AD 50
Description: (§3) The anti-serotonine activities of the compounds according to the invention have been shown by oral administration to the CD (Charles RIVER) rats using the technique of the serotonine plantar oedema (W. Theobald and R. Domenjoz--Arzneimittel Forsch, 8, 18, 1958 and with the CD 1 (Charles RIVER) mice using the technique known as "head twitch" according to S. J. Corne, R. W. Pickering and B. T. Warner, Brit. J. Pharmacol., 20, 106, (1963). The anti-serotonine activity has also been determined on the one hand on the tricoloured guinea-pig, given intravenously, according to a method derived from H. Konzet and R. Rossler, Arch. exp. Pathol, Pharmakol., 195, 71, (1940) and on the other hand in vitro with respect to the serotonine spasm of the isolated uterus of the rat according to the technique of A. Fanchamps, W. Doepfener, H. Weidman and A. Cerletti, Schw. Med. Worsch, 90, 1940, (1960).

solubility = format: physicochemical
[5] = acute toxicity, LD 50, CD 1 mice; format: in vivo; conditions: mouse, in vivo
Description: (§4) The acute toxicities of the compounds according to the invention have been determined on CD 1 (Charles RIVER) mice by intravenous and oral methods. The LD 50 of each compound has been calculated by the cumulative method of J. J. Reed and H. Muench, (Amer. J. Hyg., 1938, 27, 493).

[6] = tested on: serotonine plantar oedema; assay: anti-serotonine activity, serotonine plantar oedema; format: in vivo, CD (Charles RIVER) rats; conditions: po; rat, orally; read-out: Serotonine plantar oedema AD 50
Description: as §3

serotonine bronchospasms = assay: anti-serotonine activity, serotonine bronchospasms; format: in vivo, tricoloured guinea-pig; conditions: Cavia porcellus, iv; guinea pig, intravenously; read-out: Serotonine bronchospasms ED 50
Description: as §3

serotonine = assay: antiserotonine properties on the whole (all four tests); design: species or system rat, mice, guinea pig; conditions: comparison within the series
Description: as §3

mice [7] = assay: analgesic activity, painful abdominal torsions test with phenylbenzoquinone; format: in vivo, CD 1 (Charles RIVER) mice; conditions: for ED50: Mus musculus, po, mice, orally, read-out: Phenylbenzoquinone test on mice AD 50
Description: The analgesic properties of the products according to the invention have been shown with CD 1 (Charles RIVER) mice in the painful abdominal torsions test with phenylbenzoquinone according to the technique of E. Siegmund, R. Cadmus and Go.Lu--Proc. Soc. Exp. Biol. Med., 95, 729, (1957).

[8] = tested on: isolated duodenum of the rabbit (barium chloride); assay: spasmolytic effect on isolated duodenum, barium chloride spasm; format: cell-based; conditions: Oryctolagus cuniculus, read-out: Spasmolytic effects EC 50 with respect to barium chloride
Description: as §2

mice [9] = assay: acute toxicity, LD 50, CD 1 mice; format: in vivo; conditions: intravenous
Description: as §4

[10] = intravenous, read-out: Acute toxicity for mice LD 50, intravenous
[11] = oral, read-out: Acute toxicity for mice LD 50, orally

Compound | ED50 (rat) | spasmolytic activity type / ranking [1] | ED50 (dogs) | ED50 (mouse [2]) | EC50 [3] | ED50 (mouse [4]) | ED50 (head twitch) | solubility in dilute hydrochloric acid (solubility) | solubility in ethanol (alcohol) (solubility) | solubility in water (solubility) | LD50 [5, 10] | LD50 [5, 11] | ED50 [6] | ED50 (serotonine bronchospasms) | antiserotonine properties ranking (serotonine) | ED50 (mice [7]) | EC50 [8] | Acute toxicity for mice LD 50, intravenous (mice [9]) | also measured
CCCCCNc1nc(Cl)c(SC)c(N2CCN(C)CC2)n1 [Example 24, 2-n.pentylamino-4-N-methylpiperazino-6-chloro-5-methylthiopyrimidine] | 400 mg/kg | most effective | 1.9 mg/kg | 80 mg/kg | 0.5 µg/mL (≈ 1.45 µM) | 210 mg/kg | 25 mg/kg | soluble | very soluble | insoluble | 87 mg/kg | ~600 mg/kg | > 300 mg/kg | 0.05 mg/kg | the greatest antiserotonine properties on the whole | 100 mg/kg | 0.12 µg/mL (≈ 0.349 µM) |  | 
CSc1c(Cl)nc(N(C)C(C)=O)nc1N1CCN(C)CC1 [Example 16, 2-(N-methyl-N-acetyl)amino-4-N-methylpiperazino-5-methylthio-6-chloro-pyrimidine hydrochloride] |  |  |  |  |  |  | > 100 mg/kg |  |  |  |  | ~525 mg/kg | 100 mg/kg |  |  |  |  | insoluble | 
CCCCN1CCN(c2nc(N(C)Cc3ccccc3)nc(Cl)c2SC)CC1 [Example 27, 2-(N-methyl N-benzylamino)-4-N-butylpiperazino-5-methylthio-6-chloropyrimidine hydrochloride] |  |  | 1.5 mg/kg | 160 mg/kg |  |  |  |  |  | insoluble |  |  | > 400 mg/kg |  |  | 400 mg/kg |  | insoluble | solubility in dimethylsulphoxide (solubility; dimethylsulphoxide): soluble
CCCNc1nc(Cl)c(SC)c(N2CCN(C)CC2)n1 [Example 30, 2-n.propylamino-4-N-methylpiperazino-6-chloro-5-methylthiopyrimidine] | > 300 mg/kg | most effective | 0.16 mg/kg | 25 mg/kg | 9 µg/mL (≈ 28.5 µM) |  | 10 mg/kg | soluble | soluble | insoluble | 60 mg/kg | ~200 mg/kg |  | 0.05 mg/kg | the greatest antiserotonine properties on the whole | > 400 mg/kg | 0.2 µg/mL (≈ 0.633 µM) |  | anti-vomiting ranking (dogs; comparison within the series): the most strong anti-vomiting agents
CCCCCCNc1nc(Cl)c(SC)c(N2CCN(C)CC2)n1 [Example 25, 2-n.hexylamino-4-N-methylpiperazino-6-chloro-5-methylthiopyrimidine] | > 300 mg/kg | most effective | 5 mg/kg | 70 mg/kg | 1 µg/mL (≈ 2.79 µM) | > 300 mg/kg | 55 mg/kg | soluble | very soluble | insoluble | 70 mg/kg |  | ~300 mg/kg | 0.18 mg/kg |  | 85 mg/kg | 0.2 µg/mL (≈ 0.559 µM) |  | solubility in solvents (solubility; solvents): very soluble
CCCCN1CCN(c2nc(N3CCOCC3)nc(Cl)c2SC)CC1 [Example 29, 2-Morpholino-4-N-butylpiperazino-5-methylthio-6-chloropyrimidine] |  |  | > 5 mg/kg | 50 mg/kg |  |  | 80 mg/kg |  | soluble | insoluble |  | ~600 mg/kg |  |  |  | 55 mg/kg |  | insoluble | solubility in dilute methanesulphonic acid (solubility; dilute methanesulphonic acid): soluble
CCCCNc1nc(Cl)c(SC)c(N2CCN(C)CC2)n1 [Example 31, 2-n.butylamino-4-N-methylpiperazino-6-chloro-5-methylthiopyrimidine] |  |  | ~3 mg/kg | 20 mg/kg | 1.2 µg/mL (≈ 3.64 µM) |  | 13 mg/kg | soluble | soluble | insoluble | 98 mg/kg | ~225 mg/kg | > 100 mg/kg | 0.1 mg/kg | the greatest antiserotonine properties on the whole | 100 mg/kg | 0.3 µg/mL (≈ 0.909 µM) |  | 
COCCCNc1nc(Cl)c(SC)c(N2CCN(C)CC2)n1 [Example 5, 3'-Methoxy-2-propylamino-4-N-methylpiperazino-6-chloro-5-methylthio-pyrimidine] | 175 mg/kg | most effective |  |  | > 5 µg/mL | 30 mg/kg |  |  |  |  | 56 mg/kg | ~200 mg/kg | 90 mg/kg |  | the greatest antiserotonine properties on the whole | 35 mg/kg | 1.3 µg/mL (≈ 3.76 µM) |  | analgesic activity ranking (mice [7]; comparison within the series): the most active
